Measurements reported in PubChem BioAssay (NCI).
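The compound was tested at five concentrations on cells cultured in 96-well plates, with a 48-hour exposure period. Abbreviation: GI50, concentration required for 50% inhibition of growth. Definition used: TGI = concentration required for complete inhibition of growth.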

Legend:
Experiment in all cases: NCI-60 cell line screen, 48 h
LOX IMVI melanoma = system: LOX IMVI melanoma
UACC-62 melanoma = system: UACC-62 melanoma
SNB-19 CNS = system: SNB-19 CNS
DU-145 prostate = system: DU-145 prostate
OVCAR-4 ovarian = system: OVCAR-4 ovarian
SK-MEL-5 melanoma = system: SK-MEL-5 melanoma
RPMI-8226 leukemia = system: RPMI-8226 leukemia
HCT-116 colon = system: HCT-116 colon
OVCAR-5 ovarian = system: OVCAR-5 ovarian
HS 578T breast = system: HS 578T breast
HOP-92 NSCLC = system: HOP-92 NSCLC
M14 melanoma = system: M14 melanoma
A549 NSCLC = system: A549 NSCLC
T-47D breast = system: T-47D breast
SK-OV-3 ovarian = system: SK-OV-3 ovarian
MCF7 breast = system: MCF7 breast
IGROV1 ovarian = system: IGROV1 ovarian
RXF 393 renal = system: RXF 393 renal
SF-295 CNS = system: SF-295 CNS
A498 renal = system: A498 renal
HOP-62 NSCLC = system: HOP-62 NSCLC
NCI/ADR-RES ovarian = system: NCI/ADR-RES ovarian
BT-549 breast = system: BT-549 breast
SF-268 CNS = system: SF-268 CNS
NCI-H226 lung = system: NCI-H226 lung
OVCAR-3 ovarian = system: OVCAR-3 ovarian
SK-MEL-28 melanoma = system: SK-MEL-28 melanoma
MALME-3M melanoma = system: MALME-3M melanoma
HCC-2998 colon = system: HCC-2998 colon
HL-60(TB) leukemia = system: HL-60(TB) leukemia
TK-10 renal = system: TK-10 renal
MDA-MB-231 breast = system: MDA-MB-231 breast
EKVX NSCLC = system: EKVX NSCLC
SK-MEL-2 melanoma = system: SK-MEL-2 melanoma
MDA-MB-435 = system: MDA-MB-435
SN12C renal = system: SN12C renal
NCI-H23 lung = system: NCI-H23 lung
786-0 renal = system: 786-0 renal
SF-539 CNS = system: SF-539 CNS
HCT-15 colon = system: HCT-15 colon
CAKI-1 renal = system: CAKI-1 renal
MDA-MB-468 breast = system: MDA-MB-468 breast
OVCAR-8 ovarian = system: OVCAR-8 ovarian
KM12 colon = system: KM12 colon
PC-3 prostate = system: PC-3 prostate
ACHN renal = system: ACHN renal
UO-31 renal = system: UO-31 renal

Question: Which results are given for `COc1ccc2c(c1)c(-c1cc3nc(-c4cn(C)c5ncccc45)cc(N)n3n1)cn2C`?
Answer: GI50 (LOX IMVI melanoma): 1790 nM; TGI (LOX IMVI melanoma): 3.31 µM; GI50 (UACC-62 melanoma): 1610 nM; TGI (UACC-62 melanoma): 3.02 µM; GI50 (SNB-19 CNS): 3.98 µM; TGI (SNB-19 CNS): 16.8 µM; GI50 (DU-145 prostate): 2880 nM; TGI (DU-145 prostate): 8.26 µM; GI50 (OVCAR-4 ovarian): 2130 nM; TGI (OVCAR-4 ovarian): 5 µM; GI50 (SK-MEL-5 melanoma): 1690 nM; TGI (SK-MEL-5 melanoma): 3.24 µM; GI50 (RPMI-8226 leukemia): 2120 nM; TGI (RPMI-8226 leukemia): 5.44 µM; GI50 (HCT-116 colon): 1670 nM; TGI (HCT-116 colon): 3.13 µM; GI50 (OVCAR-5 ovarian): 4.76 µM; TGI (OVCAR-5 ovarian): 18 µM; GI50 (HS 578T breast): 2090 nM; TGI (HS 578T breast): 6.27 µM; GI50 (HOP-92 NSCLC): 1610 nM; TGI (HOP-92 NSCLC): 3.82 µM; GI50 (M14 melanoma): 1800 nM; TGI (M14 melanoma): 3.44 µM; GI50 (A549 NSCLC): 3.37 µM; TGI (A549 NSCLC): 13.8 µM; GI50 (T-47D breast): 3.24 µM; TGI (T-47D breast): 16.3 µM; GI50 (SK-OV-3 ovarian): 4.65 µM; TGI (SK-OV-3 ovarian): 33 µM; GI50 (MCF7 breast): 2270 nM; TGI (MCF7 breast): 5.91 µM; GI50 (IGROV1 ovarian): 2060 nM; TGI (IGROV1 ovarian): 4.64 µM; GI50 (RXF 393 renal): 1660 nM; TGI (RXF 393 renal): 3.21 µM; GI50 (SF-295 CNS): 1810 nM; TGI (SF-295 CNS): 3.49 µM; GI50 (A498 renal): 14.8 µM; TGI (A498 renal): 34.8 µM; GI50 (HOP-62 NSCLC): 3.11 µM; TGI (HOP-62 NSCLC): 13.3 µM; GI50 (NCI/ADR-RES ovarian): 3.62 µM; TGI (NCI/ADR-RES ovarian): 23.5 µM; GI50 (BT-549 breast): 1830 nM; TGI (BT-549 breast): 3.77 µM; GI50 (SF-268 CNS): 2640 nM; TGI (SF-268 CNS): 8.65 µM; GI50 (NCI-H226 lung): 2360 nM; TGI (NCI-H226 lung): 6.92 µM; GI50 (OVCAR-3 ovarian): 1980 nM; TGI (OVCAR-3 ovarian): 4.14 µM; GI50 (SK-MEL-28 melanoma): 1640 nM; TGI (SK-MEL-28 melanoma): 3.02 µM; GI50 (MALME-3M melanoma): 1740 nM; TGI (MALME-3M melanoma): 3.17 µM; GI50 (HCC-2998 colon): 1810 nM; TGI (HCC-2998 colon): 3.56 µM; GI50 (HL-60(TB) leukemia): 2170 nM; TGI (HL-60(TB) leukemia): 5.1 µM; GI50 (TK-10 renal): 4.25 µM; TGI (TK-10 renal): 14.5 µM; GI50 (MDA-MB-231 breast): 1840 nM; TGI (MDA-MB-231 breast): 3.89 µM; GI50 (EKVX NSCLC): 3.05 µM; TGI (EKVX NSCLC): 12.5 µM; GI50 (SK-MEL-2 melanoma): 2830 nM; TGI (SK-MEL-2 melanoma): 8.59 µM; GI50 (MDA-MB-435): 1720 nM; TGI (MDA-MB-435): 3.35 µM; GI50 (SN12C renal): 5.18 µM; TGI (SN12C renal): 18.2 µM; GI50 (NCI-H23 lung): 3.92 µM; TGI (NCI-H23 lung): 17.9 µM; GI50 (786-0 renal): 1740 nM; TGI (786-0 renal): 3.2 µM; GI50 (SF-539 CNS): 1650 nM; TGI (SF-539 CNS): 3.06 µM; GI50 (HCT-15 colon): 1760 nM; TGI (HCT-15 colon): 3.6 µM; GI50 (CAKI-1 renal): 2190 nM; TGI (CAKI-1 renal): 6.46 µM; GI50 (MDA-MB-468 breast): 1820 nM; TGI (MDA-MB-468 breast): 3.52 µM; GI50 (OVCAR-8 ovarian): 3.17 µM; TGI (OVCAR-8 ovarian): > 100 µM; GI50 (KM12 colon): 1970 nM; TGI (KM12 colon): 4.32 µM; GI50 (PC-3 prostate): 2750 nM; TGI (PC-3 prostate): > 100 µM; GI50 (ACHN renal): 2090 nM; TGI (ACHN renal): 4.24 µM; GI50 (UO-31 renal): 1850 nM; TGI (UO-31 renal): 4.57 µM
